Measurements as given in patent US7267994B2, “Element-coded affinity tags” (Regents of the University of California, priority 2003, dated 2007).

What was measured:
antibody 2D12.5 [1] = experiment: relative binding curves of 2D12.5 for Y-DOTA isomers and side chain variants; set-up: species or system murine; conditions: for relative binding affinity for 2D12.5, isomers: coordinated metal Y^3+, FIG. 15; for relative binding affinity for 2D12.5, side chain location: Y-DOTA molecule with different side chain locations, FIG. 6
From the text: FIG. 6 is a graphical display showing the relative binding curves of an exemplary metal chelate, the Y-DOTA molecule, with different side chain locations. […] Evaluation of the crystal structure seems to indicate that shorter substitutions at this position may bind with higher affinity. Substitutions at other locations may yield reasonably high affinities as well. The (5-Amino-2-methoxy-phenyl)-carboxymethyl)-DOTA analyzed in this experiment was racemic, so it is not clear which isomer binds with higher affinity. The low pKa of the carboxymethyl proton makes it difficult to prepare a chirally pure molecule.
FIG. 15 is a graphical display showing the relative binding curves of 2D12.5 for Y-DOTA isomers and Y-DTPA. 2D12.5 binds both the (R)- and (S)- isomers of 2-(4-nitrobenzyl)-DOTA when the coordinated metal is Y^3+ (the same behavior is expected for the other rare earths). The (S)-isomer confers Λ-helicity, while the (R)-isomer confers Δ-helicity to the acetate arms. […] Y-DOTA (no-sidearm) exists is solution as a racemic mixture of the coordination isomers.

antibody 2D12.5 [2] = experiment: competitive immunoassay (ELISA) of metal-DOTA complexes relative to Y-DOTA; format: binding, murine; conditions: metal complexes of [S]-2-(p-nitrobenzyl)-DOTA, 37° C.
From the text: FIG. 13 is graphical display showing the relative binding of metal-DOTA complexes to antibody 2D12.5. A representative set of competitive binding curves obtained from ELISA experiments described in Example 3 below. Error bars (representing the standard error of the mean) are shown, but are generally smaller than the data points.
To determine the metal selectivity of the antibody 2D12.5, a competitive immunoassay was used to measure the binding constants of multiple metal-DOTA complexes relative to Y^3+-DOTA.
We examined the monoclonal antibody 2D12.5, initially developed to bind specifically to Y-DOTA for targeted radiotherapy (see, e.g., Goodwin et al., Cancer Res. 54: 5937-5946 (1994)), in order to determine the scope of its activity. To assess the metal selectivity of antibody 2D12.5, a competitive immunoassay to measure the binding constants of various metal-DOTA complexes relative to the original Y^3+ complex was developed (FIG. 13). Briefly, 2D12.5 was incubated at 37° C. in the presence of immobilized Y-DOTA and a soluble metal-DOTA competitor. The metal-DOTA concentration was varied from μM to pM in order to determine the relative binding affinity of 2D12.5 for each metal chelate in comparison to Y-DOTA. Binding was measured by standard methods known to those of skill in the art. […]
Target sequence in this assay (as listed by the source): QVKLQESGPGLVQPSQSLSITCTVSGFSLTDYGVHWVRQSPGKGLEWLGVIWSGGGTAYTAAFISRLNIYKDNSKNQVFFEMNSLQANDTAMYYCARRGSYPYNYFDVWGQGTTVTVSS
Target sequence in this assay (as listed by the source): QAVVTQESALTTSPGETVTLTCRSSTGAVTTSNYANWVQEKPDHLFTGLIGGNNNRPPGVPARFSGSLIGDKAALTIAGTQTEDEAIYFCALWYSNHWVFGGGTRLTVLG

Molecule	relative binding affinity for 2D12.5, isomers (antibody 2D12.5 [1])	relative binding affinity for 2D12.5, side chain location (antibody 2D12.5 [1])	binding to 2D12.5 compared with the Y^3+ complex (antibody 2D12.5 [2])	binding to 2D12.5 compared with the Y^3+ complex (antibody 2D12.5 [2]; listed as Gd^3+)
O=C(O)CN1CCN(CC(=O)O)CCN(CC(=O)O)C(Cc2ccc([N+](=O)[O-])cc2)CN(CC(=O)O)CC1 (single isomer, unassigned; isomer 2) [(R)-isomer, 2-(4-nitrobenzyl)-DOTA]	affinity decreases less than an order of magnitude			
O=C(O)CN1CCN(CC(=O)O)CCN(CC(=O)O)[C@@H](Cc2ccc([N+](=O)[O-])cc2)CN(CC(=O)O)CC1 [(S)-2-(4-nitrobenzyl)-DOTA, (S)-2-(4-nitro-benzyl)-1,4,7,10-tetraazacyclododecane-N,N′,N″,N′″-tetraacetic acid]	preferred isomer for binding	clearly stronger		
(5-Amino-2-methoxy-phenyl)-carboxymethyl)-DOTA		still sufficiently strong		
Gd-DOTA			bind more tightly than the original Y^3+ complex	strongest binders
